Assay results published in ChEMBL document CHEMBL4387741, “Optimization of novel reversible Bruton's tyrosine kinase inhibitors identified using Tethering-fragment-based screens” (Bioorg Med Chem, 2019).

Columns and labels:
[1] = target: Serine/threonine-protein kinase Chk2 (Homo sapiens) (UniProt O96017); experiment: Inhibition of wild-type human partial length CHEK2 (S253 to E574 residues) expressed in bacterial expression system at 1 uM by Kinomescan method relative to control
[2] = target: Serine/threonine-protein kinase 17A (Homo sapiens) (UniProt Q9UEE5); experiment: Inhibition of wild-type human partial length DRAK1 (R32 to E363 residues) expressed in bacterial expression system at 1 uM by Kinomescan method relative to control
[3] = target: Mitogen-activated protein kinase 6 (Homo sapiens) (UniProt Q16659); experiment: Inhibition of wild-type human partial length ERK3 (M1 to P413 residues) expressed in bacterial expression system at 1 uM by Kinomescan method relative to control
[4] = target: Fibroblast growth factor receptor 3 (Homo sapiens) (UniProt P22607); experiment: Inhibition of wild-type human partial length FGFR3 (R442 to S771 residues) expressed in bacterial expression system at 1 uM by Kinomescan method relative to control
[5] = target: Serine/threonine-protein kinase ICK (Homo sapiens) (UniProt Q9UPZ9); experiment: Inhibition of wild-type human partial length ICK (M1 to P314 residues) expressed in mammalian expression system at 1 uM by Kinomescan method relative to control
[6] = target: Serine/threonine-protein kinase Nek2 (Homo sapiens) (UniProt P51955); experiment: Inhibition of wild-type human partial length NEK2 (M1 to K309 residues) expressed in bacterial expression system at 1 uM by Kinomescan method relative to control
[7] = target: Serine/threonine-protein kinase PRP4 homolog (Homo sapiens) (UniProt Q13523); experiment: Inhibition of wild-type human partial length PRP4 (D657 to I1007 residues) expressed in bacterial expression system at 1 uM by Kinomescan method relative to control
[8] = target: Dual serine/threonine and tyrosine protein kinase (Homo sapiens) (UniProt Q6XUX3); experiment: Inhibition of wild-type human full length RIPK5 (M1 to T929 residues) expressed in mammalian expression system at 1 uM by Kinomescan method relative to control
[9] = target: Ribosomal protein S6 kinase alpha-3 (Homo sapiens) (UniProt P51812); experiment: Inhibition of wild-type human partial length C-terminal RSK2 kinase domain 2 (V402 to S715 residues) expressed in mammalian expression system at 1 uM by Kinomescan method relative to control
[10] = target: SRSF protein kinase 2 (Homo sapiens) (UniProt P78362); experiment: Inhibition of wild-type human full length SRPK2 (M1 to S686 residues) expressed in bacterial expression system at 1 uM by Kinomescan method relative to control
[11] = target: Testis-specific serine/threonine-protein kinase 3 (Homo sapiens) (UniProt Q96PN8); experiment: Inhibition of wild-type human full length TSSK3 (M1 to T268 residues) expressed in mammalian expression system at 1 uM by Kinomescan method relative to control
[12] = Lipophilicity, log D of the compound; format: physicochemical; conditions: octanol/water
[13] = test system: Tyrosine-protein kinase ABL1 (Homo sapiens), P00519 [F317I]; experiment: Inhibition of human non-phosphorylated ABL1 F317I mutant (S229 to K512 residues) expressed in mammalian expression system at 10 uM by Kinomescan method relative to control
[14] = target: Tyrosine-protein kinase ABL2 (Homo sapiens) (UniProt P42684); experiment: Inhibition of wild-type human ABL2 (A248 to G542 residues) expressed in bacterial expression system at 10 uM by Kinomescan method relative to control
[15] = target: Activin receptor type-2A (Homo sapiens) (UniProt P27037); experiment: Inhibition of wild-type human ACVR2A (V171 to T499 residues) expressed in bacterial expression system at 10 uM by Kinomescan method relative to control
[16] = target: BMP-2-inducible protein kinase (Homo sapiens) (UniProt Q9NSY1); experiment: Inhibition of wild-type human partial length BIKE (S34 to N329 residues) expressed in bacterial expression system at 10 uM by Kinomescan method relative to control
[17] = target: Dual specificity protein kinase CLK1 (Homo sapiens) (UniProt P49759); experiment: Inhibition of wild-type human full length CLK1 (M1 to I484 residues) expressed in bacterial expression system at 10 uM by Kinomescan method relative to control
[18] = target: Casein kinase II subunit alpha' (Homo sapiens) (UniProt P19784); experiment: Inhibition of wild-type human full length CSNK2A2 (M1 to R350 residues) expressed in mammalian expression system at 10 uM by Kinomescan method relative to control
[19] = target: Serine/threonine-protein kinase MRCK gamma (Homo sapiens) (UniProt Q6DT37); experiment: Inhibition of wild-type human partial length DMPK2 (S46 to S408 residues) expressed in bacterial expression system at 10 uM by Kinomescan method relative to control
[20] = target: Ephrin type-A receptor 5 (Homo sapiens) (UniProt P54756); experiment: Inhibition of wild-type human partial length EPHA5 (T627 to V930 residues) expressed in bacterial expression system at 10 uM by Kinomescan method relative to control
[21] = target: Tyrosine-protein kinase Fer (Homo sapiens) (UniProt P16591); experiment: Inhibition of wild-type human partial length FER (S542 to T822 residues) expressed in bacterial expression system at 10 uM by Kinomescan method relative to control
[22] = target: Vascular endothelial growth factor receptor 1 (Homo sapiens) (UniProt P17948); experiment: Inhibition of wild-type human partial length FLT1 (R781 to F1239 residues) expressed in bacterial expression system at 10 uM by Kinomescan method relative to control
[23] = target: Interleukin-1 receptor-associated kinase 4 (Homo sapiens) (UniProt Q9NWZ3); experiment: Inhibition of wild-type human partial length IRAK4 (M1 to S460 residues) expressed in mammalian expression system at 10 uM by Kinomescan method relative to control
[24] = target: Mitogen-activated protein kinase kinase kinase 2 (Homo sapiens) (UniProt Q9Y2U5); experiment: Inhibition of wild-type human partial length MAP3K2 (S315 to H619 residues) expressed in mammalian expression system at 10 uM by Kinomescan method relative to control
[25] = target: 3-phosphoinositide-dependent protein kinase 1 (Homo sapiens) (UniProt O15530); experiment: Inhibition of wild-type human full length PDPK1 (M1 to Q556 residues) expressed in bacterial expression system at 10 uM by Kinomescan method relative to control
[26] = target: Proto-oncogene tyrosine-protein kinase receptor Ret (Homo sapiens) (UniProt P07949); experiment: Inhibition of wild-type human partial length RET (E713 to D1014 residues) expressed in bacterial expression system at 10 uM by Kinomescan method relative to control
[27] = target: BDNF/NT-3 growth factors receptor (Homo sapiens) (UniProt Q16620); experiment: Inhibition of wild-type human partial length TRKB (Q547 to G838 residues) expressed in mammalian expression system at 10 uM by Kinomescan method relative to control
[28] = target: Serine/threonine-protein kinase ULK3 (Homo sapiens) (UniProt Q6PHR2); experiment: Inhibition of wild-type human partial length ULK3 (M1 to Q290 residues) expressed in mammalian expression system at 10 uM by Kinomescan method relative to control

## O=C(Nc1cccc([C@@H]2CN(c3ncnc4[nH]ccc34)CCN2CCO)c1)Nc1c(F)cccc1N1CCCC1
[1]
  inhibition: 69%
[2]
  inhibition: 82%
[3]
  inhibition: 100%
[4]
  inhibition: 83%
[5]
  inhibition: 100%
[6]
  inhibition: 100%
[7]
  inhibition: 92%
[8]
  inhibition: 74%
[9]
  inhibition: 100%
[10]
  inhibition: 88%
[11]
  inhibition: 43%
[12]
  logD: 2.6

## O=C(Nc1cccc([C@H]2CCCN(c3ncnc4[nH]ccc34)C2)c1)Nc1ccccc1N1CCCC1
[13]
  inhibition: 100%
[14]
  inhibition: 89%
[15]
  inhibition: 100%
[16]
  inhibition: 0%
[17]
  inhibition: 68%
[18]
  inhibition: 91%
[19]
  inhibition: 62%
[20]
  inhibition: 97%
[21]
  inhibition: 80%
[22]
  inhibition: 2.2%
[23]
  inhibition: 85%
[24]
  inhibition: 27%
[25]
  inhibition: 41%
[26]
  inhibition: 0%
[27]
  inhibition: 69%
[28]
  inhibition: 6.2%
